Source: the kinase profiling compilation of Christmann-Franck et al. (2016)

Experiments:
Experiment in all cases: radiometric filter-binding kinase assay, Kinaseprofiler
BTK (human) = BTK (human) (UniProt Q06187); settings: ATP 200 µM
CAMK2B (human) = CAMK2B (human) (UniProt Q13554); settings: ATP 15 µM
CAMK2D (human) = CAMK2D (human) (UniProt Q13557); settings: compound 1.0 µM; ATP 10 µM
CAMK2G (human) = CAMK2G (human) (UniProt Q13555); settings: compound 10.0 µM; ATP 10 µM
CDK1 CCNB1 (human) = CDK1 CCNB1 (human) (UniProt P06493+P14635); settings: compound 10.0 µM; ATP 45 µM
CDK2 CCNA2 (human) = CDK2 CCNA2 (human) (UniProt P24941+P20248); settings: ATP 45 µM
Chain of CDK2 CCNA2 (human) (P20248 whole entry, looked up, other chains not shown): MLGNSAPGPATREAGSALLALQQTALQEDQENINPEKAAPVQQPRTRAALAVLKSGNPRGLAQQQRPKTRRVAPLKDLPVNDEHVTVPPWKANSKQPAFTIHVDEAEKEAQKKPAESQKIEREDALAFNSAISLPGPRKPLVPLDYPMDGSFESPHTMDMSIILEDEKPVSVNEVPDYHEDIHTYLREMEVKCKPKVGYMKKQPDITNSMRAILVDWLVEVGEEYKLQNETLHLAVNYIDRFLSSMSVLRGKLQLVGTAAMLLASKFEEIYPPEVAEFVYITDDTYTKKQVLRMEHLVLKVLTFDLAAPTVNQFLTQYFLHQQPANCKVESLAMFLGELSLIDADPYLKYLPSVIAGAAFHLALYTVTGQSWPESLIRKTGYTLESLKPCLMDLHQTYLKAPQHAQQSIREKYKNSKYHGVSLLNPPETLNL

CDK2 CCNE1 (human) = CDK2 CCNE1 (human) (UniProt P24941+P24864); settings: ATP 120 µM
CDK7 CCNH MNAT1 (human) = CDK7 CCNH MNAT1 (human) (UniProt P50613+P51948+P51946); settings: ATP 90 µM
DYRK2 (human) = DYRK2 (human) (UniProt Q92630); settings: compound 10.0 µM; ATP 15 µM
EPHA1 (human) = EPHA1 (human) (UniProt P21709); settings: compound 10.0 µM; ATP 45 µM
FLT1 (human) = FLT1 (human) (UniProt P17948); settings: ATP 200 µM
Chain of FLT1 (human) (P17948 whole entry, looked up): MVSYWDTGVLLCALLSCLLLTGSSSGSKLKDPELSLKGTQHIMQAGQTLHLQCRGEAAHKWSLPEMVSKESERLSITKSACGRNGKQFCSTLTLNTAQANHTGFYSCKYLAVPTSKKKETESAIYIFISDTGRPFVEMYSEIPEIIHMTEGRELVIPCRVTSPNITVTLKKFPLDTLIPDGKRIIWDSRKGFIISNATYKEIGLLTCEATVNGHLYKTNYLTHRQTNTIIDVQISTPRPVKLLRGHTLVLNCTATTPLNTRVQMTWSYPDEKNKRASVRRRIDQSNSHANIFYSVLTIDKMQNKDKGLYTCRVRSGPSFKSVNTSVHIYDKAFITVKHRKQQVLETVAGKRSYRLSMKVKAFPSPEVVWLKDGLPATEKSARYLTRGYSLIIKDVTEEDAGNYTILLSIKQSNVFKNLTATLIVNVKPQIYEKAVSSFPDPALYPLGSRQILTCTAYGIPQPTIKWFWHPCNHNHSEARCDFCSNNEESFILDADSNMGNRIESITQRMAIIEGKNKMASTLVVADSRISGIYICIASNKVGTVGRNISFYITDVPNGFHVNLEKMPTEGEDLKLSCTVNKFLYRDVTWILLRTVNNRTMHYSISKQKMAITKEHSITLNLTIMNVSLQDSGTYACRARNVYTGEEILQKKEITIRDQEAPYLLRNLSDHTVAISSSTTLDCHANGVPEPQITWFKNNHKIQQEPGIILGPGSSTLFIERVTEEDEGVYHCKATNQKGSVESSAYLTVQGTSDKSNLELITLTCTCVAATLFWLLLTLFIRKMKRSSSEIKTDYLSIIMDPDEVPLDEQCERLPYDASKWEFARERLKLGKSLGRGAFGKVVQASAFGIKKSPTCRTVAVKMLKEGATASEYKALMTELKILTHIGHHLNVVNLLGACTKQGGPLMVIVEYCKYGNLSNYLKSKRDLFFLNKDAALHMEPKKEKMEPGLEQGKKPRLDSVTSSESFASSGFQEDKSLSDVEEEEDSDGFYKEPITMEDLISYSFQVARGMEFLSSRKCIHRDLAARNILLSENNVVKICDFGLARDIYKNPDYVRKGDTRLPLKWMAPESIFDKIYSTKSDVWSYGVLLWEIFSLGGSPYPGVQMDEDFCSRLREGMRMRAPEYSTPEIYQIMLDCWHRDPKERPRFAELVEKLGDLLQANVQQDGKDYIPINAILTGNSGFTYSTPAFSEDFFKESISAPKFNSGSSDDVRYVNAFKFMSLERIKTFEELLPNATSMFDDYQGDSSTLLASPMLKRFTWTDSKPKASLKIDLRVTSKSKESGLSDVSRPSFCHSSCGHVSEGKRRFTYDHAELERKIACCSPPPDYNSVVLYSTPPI

FLT3 (human) = FLT3 (human) (UniProt P36888); settings: compound 1.0 µM; ATP 200 µM
[1] = system: FLT4 (human), P35916 [V1128L/H1146R]; settings: compound 1.0 µM; ATP 200 µM
[2] = target: JAK3 JH1 catalytic (human) (UniProt P52333); settings: ATP 10 µM
KDR (human) = KDR (human) (UniProt P35968); settings: compound 10.0 µM; ATP 90 µM
MAPK3 (human) = MAPK3 (human) (UniProt P27361); settings: compound 10.0 µM; ATP 70 µM
MAPK8 (human) = MAPK8 (human) (UniProt P45983); settings: ATP 45 µM
MELK (human) = MELK (human) (UniProt Q14680); settings: compound 10.0 µM; ATP 45 µM
MKNK2 (human) = MKNK2 (human) (UniProt Q9HBH9); settings: ATP 120 µM
MTOR FKBP1A (human) = MTOR FKBP1A (human) (UniProt P42345+P62942); settings: ATP 45 µM
Chain of MTOR FKBP1A (human) (P62942 whole entry, looked up, other chains not shown): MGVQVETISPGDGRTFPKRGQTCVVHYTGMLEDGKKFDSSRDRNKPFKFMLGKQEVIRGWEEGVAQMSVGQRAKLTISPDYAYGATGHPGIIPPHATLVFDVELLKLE

NTRK2 (human) = NTRK2 (human) (UniProt Q16620); settings: ATP 90 µM
PAK6 (human) = PAK6 (human) (UniProt Q9NQU5); settings: ATP 10 µM
Chain of PAK6 (human) (Q9NQU5 whole entry, looked up): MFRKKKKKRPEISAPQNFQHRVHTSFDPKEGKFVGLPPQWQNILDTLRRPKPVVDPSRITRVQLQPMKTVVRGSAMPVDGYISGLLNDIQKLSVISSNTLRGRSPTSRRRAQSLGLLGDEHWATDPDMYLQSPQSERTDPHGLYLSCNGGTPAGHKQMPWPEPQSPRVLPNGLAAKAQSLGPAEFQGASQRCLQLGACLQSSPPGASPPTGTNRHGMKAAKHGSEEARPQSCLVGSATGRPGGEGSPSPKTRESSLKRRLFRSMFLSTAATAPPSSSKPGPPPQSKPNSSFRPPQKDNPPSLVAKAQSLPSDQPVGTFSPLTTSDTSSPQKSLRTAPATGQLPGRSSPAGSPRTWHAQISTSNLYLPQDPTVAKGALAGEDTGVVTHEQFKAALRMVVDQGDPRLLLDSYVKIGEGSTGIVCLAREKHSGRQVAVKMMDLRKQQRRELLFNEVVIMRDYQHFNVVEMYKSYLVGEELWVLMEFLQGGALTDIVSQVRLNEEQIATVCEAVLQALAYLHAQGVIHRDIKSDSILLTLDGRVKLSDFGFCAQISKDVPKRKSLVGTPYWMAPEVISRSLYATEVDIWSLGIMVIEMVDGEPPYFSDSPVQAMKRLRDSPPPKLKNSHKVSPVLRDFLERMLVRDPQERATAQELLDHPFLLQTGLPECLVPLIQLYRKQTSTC

PDPK1 (human) = PDPK1 (human) (UniProt O15530); settings: ATP 10 µM
Chain of PDPK1 (human) (O15530 whole entry, looked up): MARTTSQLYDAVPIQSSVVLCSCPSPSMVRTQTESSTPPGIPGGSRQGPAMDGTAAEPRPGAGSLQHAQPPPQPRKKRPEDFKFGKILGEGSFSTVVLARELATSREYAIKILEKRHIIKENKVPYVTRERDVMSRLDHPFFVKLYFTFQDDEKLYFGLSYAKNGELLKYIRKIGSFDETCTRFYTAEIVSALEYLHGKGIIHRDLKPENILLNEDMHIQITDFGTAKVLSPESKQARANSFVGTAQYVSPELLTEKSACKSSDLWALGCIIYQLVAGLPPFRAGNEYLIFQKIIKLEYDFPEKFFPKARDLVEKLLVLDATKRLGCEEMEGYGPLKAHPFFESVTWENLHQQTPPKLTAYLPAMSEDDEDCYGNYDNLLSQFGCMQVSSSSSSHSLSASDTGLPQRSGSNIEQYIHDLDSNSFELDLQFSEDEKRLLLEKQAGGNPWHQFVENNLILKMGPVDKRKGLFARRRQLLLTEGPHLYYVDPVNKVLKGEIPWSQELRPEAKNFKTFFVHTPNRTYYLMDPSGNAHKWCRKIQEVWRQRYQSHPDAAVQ

[3] = target: PRKAA1 PRKAB1 PRKAG1 (human) (UniProt P54619+Q13131+Q9Y478); settings: ATP 45 µM
[4] = target: PRKAA2 PRKAB1 PRKAG1 (human) (UniProt P54619+P54646+Q9Y478); settings: ATP 45 µM
PRKCA (human) = PRKCA (human) (UniProt P17252); settings: compound 10.0 µM; ATP 45 µM
[5] = system: PRKD1 (human), Q15139 [R135A]; settings: compound 10.0 µM; ATP 45 µM
PRKX (human) = PRKX (human) (UniProt P51817); settings: compound 10.0 µM; ATP 200 µM
RPS6KA5 KD1 KD2 (human) = RPS6KA5 KD1 KD2 (human) (UniProt O75582); settings: compound 10.0 µM; ATP 90 µM
STK17A (human) = STK17A (human) (UniProt Q9UEE5); settings: compound 1.0 µM; ATP 10 µM
STK33 (human) = STK33 (human) (UniProt Q9BYT3); settings: compound 10.0 µM; ATP 155 µM
TNK2 (human) = TNK2 (human) (UniProt Q07912); settings: ATP 70 µM
TSSK1B (human) = TSSK1B (human) (UniProt Q9BXA7); settings: ATP 15 µM
Chain of TSSK1B (human) (Q9BXA7 whole entry, looked up): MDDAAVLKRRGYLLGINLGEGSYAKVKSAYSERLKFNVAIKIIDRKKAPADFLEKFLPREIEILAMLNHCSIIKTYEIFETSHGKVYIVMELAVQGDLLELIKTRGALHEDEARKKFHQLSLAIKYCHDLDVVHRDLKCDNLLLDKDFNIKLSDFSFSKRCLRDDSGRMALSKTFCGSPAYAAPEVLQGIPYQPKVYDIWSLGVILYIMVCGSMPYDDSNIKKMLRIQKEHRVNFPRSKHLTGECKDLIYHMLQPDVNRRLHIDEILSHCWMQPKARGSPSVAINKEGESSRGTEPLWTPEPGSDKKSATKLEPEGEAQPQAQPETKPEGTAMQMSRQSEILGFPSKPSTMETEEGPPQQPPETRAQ

Chain of BTK (human) (Q06187 whole entry, looked up): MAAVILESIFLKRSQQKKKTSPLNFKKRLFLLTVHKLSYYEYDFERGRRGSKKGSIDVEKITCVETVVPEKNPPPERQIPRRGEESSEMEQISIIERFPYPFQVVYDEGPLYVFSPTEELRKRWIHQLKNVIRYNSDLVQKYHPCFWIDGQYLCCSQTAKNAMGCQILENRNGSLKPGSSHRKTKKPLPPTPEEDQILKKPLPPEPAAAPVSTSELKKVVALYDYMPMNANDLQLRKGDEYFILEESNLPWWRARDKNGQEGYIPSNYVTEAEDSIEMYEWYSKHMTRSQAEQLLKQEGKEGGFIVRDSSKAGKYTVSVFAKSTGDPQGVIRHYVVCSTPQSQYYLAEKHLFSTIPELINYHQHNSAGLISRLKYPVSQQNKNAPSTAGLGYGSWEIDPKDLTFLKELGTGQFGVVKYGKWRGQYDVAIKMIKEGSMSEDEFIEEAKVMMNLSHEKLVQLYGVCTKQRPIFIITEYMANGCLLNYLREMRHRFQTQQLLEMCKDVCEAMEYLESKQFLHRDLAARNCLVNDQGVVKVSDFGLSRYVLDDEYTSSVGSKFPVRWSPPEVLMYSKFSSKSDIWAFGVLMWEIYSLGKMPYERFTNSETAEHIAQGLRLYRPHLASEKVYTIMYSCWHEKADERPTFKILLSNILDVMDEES
Chain of CAMK2B (human) (Q13554 whole entry, looked up): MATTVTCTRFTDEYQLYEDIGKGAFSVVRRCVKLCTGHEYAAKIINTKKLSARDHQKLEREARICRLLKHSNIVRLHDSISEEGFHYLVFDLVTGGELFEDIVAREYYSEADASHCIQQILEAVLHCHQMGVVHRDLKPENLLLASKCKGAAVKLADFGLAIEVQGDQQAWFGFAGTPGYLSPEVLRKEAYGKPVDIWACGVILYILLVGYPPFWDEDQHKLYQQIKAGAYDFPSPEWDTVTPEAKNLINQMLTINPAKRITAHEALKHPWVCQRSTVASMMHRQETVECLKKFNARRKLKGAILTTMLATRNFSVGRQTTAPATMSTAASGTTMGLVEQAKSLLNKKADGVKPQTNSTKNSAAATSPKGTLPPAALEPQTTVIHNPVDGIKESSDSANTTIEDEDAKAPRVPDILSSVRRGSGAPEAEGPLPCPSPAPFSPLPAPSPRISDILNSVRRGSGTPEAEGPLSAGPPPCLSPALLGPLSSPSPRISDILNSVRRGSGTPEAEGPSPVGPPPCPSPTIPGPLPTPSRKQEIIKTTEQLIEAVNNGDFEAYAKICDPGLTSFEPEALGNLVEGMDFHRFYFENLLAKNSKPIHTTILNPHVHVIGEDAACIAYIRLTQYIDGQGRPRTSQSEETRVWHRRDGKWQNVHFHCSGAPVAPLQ

In the case of `COC(=O)[C@]1(O)C[C@@H]2O[C@@]1(C)n1c3ccccc3c3c4c(c5c6ccccc6n2c5c31)C(=O)NC4`, the residual activity (BTK (human); compound 1.0 µM) is reported as -1%, the residual activity (BTK (human); compound 10.0 µM) is reported as -1% and the residual activity (CAMK2B (human); compound 1.0 µM) is reported as 0%. For the same compound, the residual activity (CAMK2B (human); compound 10.0 µM) was -1%, the residual activity (CAMK2D (human)) was 0% and the residual activity (CAMK2G (human)) was 0%. It also gave a residual activity (CDK1 CCNB1 (human)) of -1%, a residual activity (CDK2 CCNA2 (human); compound 1.0 µM) of 1% and a residual activity (CDK2 CCNA2 (human); compound 10.0 µM) of 0%. It also gave a residual activity (CDK2 CCNE1 (human); compound 1.0 µM) of 6%, a residual activity (CDK2 CCNE1 (human); compound 10.0 µM) of 0% and a residual activity (CDK7 CCNH MNAT1 (human); compound 1.0 µM) of 55%. For the same compound, the residual activity (CDK7 CCNH MNAT1 (human); compound 10.0 µM) was 16%, the residual activity (DYRK2 (human)) was -4% and the residual activity (EPHA1 (human)) was 0%. The residual activity (FLT1 (human); compound 1.0 µM) was 0%, the residual activity (FLT1 (human); compound 10.0 µM) was 0% and the residual activity (FLT3 (human)) was 0%. The residual activity [1] was 0%, the residual activity ([2]; compound 1.0 µM) was 0% and the residual activity ([2]; compound 10.0 µM) was 0%. The residual activity (KDR (human)) was 0%, the residual activity (MAPK3 (human)) was -1% and the residual activity (MAPK8 (human); compound 1.0 µM) was -12%. For the same compound, the residual activity (MAPK8 (human); compound 10.0 µM) was -20%, the residual activity (MELK (human)) was -1% and the residual activity (MKNK2 (human); compound 1.0 µM) was 0%. The residual activity (MKNK2 (human); compound 10.0 µM) was 0%, the residual activity (MTOR FKBP1A (human); compound 1.0 µM) was 89% and the residual activity (MTOR FKBP1A (human); compound 10.0 µM) was 79%. The residual activity (NTRK2 (human); compound 1.0 µM) was 0%, the residual activity (NTRK2 (human); compound 10.0 µM) was 0% and the residual activity (PAK6 (human); compound 1.0 µM) was 0%. It also gave a residual activity (PAK6 (human); compound 10.0 µM) of -1%, a residual activity (PDPK1 (human); compound 1.0 µM) of -1% and a residual activity (PDPK1 (human); compound 10.0 µM) of 0%. The residual activity ([3]; compound 1.0 µM) was -1%, the residual activity ([3]; compound 10.0 µM) was 0% and the residual activity ([4]; compound 1.0 µM) was -5%. The residual activity ([4]; compound 10.0 µM) was 1%, the residual activity (PRKCA (human)) was 0% and the residual activity [5] was 0%. The residual activity (PRKX (human)) was 0%, the residual activity (RPS6KA5 KD1 KD2 (human)) was 0% and the residual activity (STK17A (human)) was 0%. It also gave a residual activity (STK33 (human)) of 0%, a residual activity (TNK2 (human); compound 1.0 µM) of 0% and a residual activity (TNK2 (human); compound 10.0 µM) of 0%. It also gave a residual activity (TSSK1B (human); compound 1.0 µM) of -1% and a residual activity (TSSK1B (human); compound 10.0 µM) of 0%.
